Experimental data reported in patent publication US20240043439A1, “COMPOUNDS AS C5AR INHIBITORS” (Kira Pharmaceuticals (Suzhou) Ltd., priority 2020, published 2024).

Legend:
[1] = biological target: human C5a receptor (C5aR) (Homo sapiens (Human), UniProt P21730); test: Inhibition of C5a-C5aR binding (biotinylated human C5a, U937/C5aR cells, FACS)
In short: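 U937 cells stably expressing human C5aR, 3×10^6 cells/ml in PBS+0.1% BSA, were co-incubated with compound and biotinylated human C5a (30 nM, working solution) on ice for 120 min. Bound ligand was stained with FITC-streptavidin for 30 min on ice and read by flow cytometry.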

C5aR [2] = biological target: T1, C5aR (Homo sapiens (Human), UniProt P21730); test: Inhibition of C5a-C5aR binding determined by cell migration assay (U937/C5aR cells); type: cell-based; conditions: U937/C5aR cell migration towards human C5a, 180 min
T1 sequence (P21730 whole entry): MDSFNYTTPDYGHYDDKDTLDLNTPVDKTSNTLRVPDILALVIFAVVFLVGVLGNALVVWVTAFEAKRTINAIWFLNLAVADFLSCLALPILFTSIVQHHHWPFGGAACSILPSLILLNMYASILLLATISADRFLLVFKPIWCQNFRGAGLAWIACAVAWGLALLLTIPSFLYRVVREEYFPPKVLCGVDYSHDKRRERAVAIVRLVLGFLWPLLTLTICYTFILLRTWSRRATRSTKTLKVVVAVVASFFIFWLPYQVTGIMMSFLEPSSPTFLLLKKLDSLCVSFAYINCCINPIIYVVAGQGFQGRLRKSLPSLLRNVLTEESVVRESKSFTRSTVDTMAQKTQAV
Experimental: Migration assay was performed by using polycarbonate membrane with 3.0 µm pore (Corning). U937/C5aR cells were collected and washed twice by PBS; cells were suspended in Hank's balanced salt solution (HBSS)+1% FBS buffer at the density of 6×10^6 cells/ml. Cells were premixed with compound and added to insert well, ligand human C5a and compound were added to bottom well in order, gently mix, incubate for 30 min at 37° C., […]. Put insert plate into bottom well, migrate for 180 min at 37° C., […]. Gently remove the insert well, add 50 μl CellTiter-Glo (Promega), gently shaking for 5 min at room temperature, transfer 150 μl mixture to black plate and read luminescence intensity by
microplate reader (BioTek).

C5aR [3] = biological target: T1, C5aR; test: Calcium mobilization (U937/C5aR or HEK293/C5aR cells, FLIPR); type: cell-based; conditions: agonist human C5a at EC80, FLIPR
In short: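 U937 or HEK293 cells expressing human C5aR, plated overnight, then preincubated 60 min with compound. After Fluo-4 Direct dye loading (50 min at 37 °C, 10 min at room temperature), intracellular calcium rise on FLIPR was triggered by human C5a agonist at EC80.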

[4] = test system: human C5a (hC5a) induced neutropenia; test: C5a induced neutropenia in a cynomolgus model; type: in vivo; conditions: cynomolgus monkey, pre-dosed 4 hours before hC5a, compared to vehicle
Experimental: To study the efficacy of compounds in a non-human primate model, human C5a (hC5a) induced neutropenia is studied in a cynomolgus model. Intravenous injection of hC5a induced upregulation of adhesion molecules on blood vessel walls, leading to decreased neutrophils in the blood stream and attached to the vascular walls. Monkeys were pre-dosed with vehicle or specific compound, and 4 hours later, hC5a ([…], ACROBiosystems) was administrated and 1 minute later neutrophils are quantified in peripheral blood.
The percent change in the number of neutrophils in the blood collected after C5a injection (241 min) was calculated relative to the sample collected prior to C5a injection (239 min). The plasma concentration of each compound was calculated as the average concentration prior to C5a injection of 2 individual monkeys.

[5] = test system: C5a induced CD11b upregulation on granulocytes; test: Neutrophil CD11b FACS assay, cyno monkey whole blood after oral pre-dosing; type: in vivo; conditions: oral pre-dosing at 10 mg/kg
Experimental: (§1) Peripheral blood samples were collected from Cynomolgus monkey/huC5aR knock-in mice at indicated timepoints. 100 μl aliquots were mixed with a range of C5a concentrations and incubated at 37° C. for 30 min. Blood was cooled down on wet ice for at least 3 min, anti-CD11b monoclonal antibody (BD Biosciences) was added and incubated at 4° C. for 60 min. Red blood cells were lysed by adding erythrocyte lysis buffer (Solarbio) and incubated on ice for 10 min, white blood cells were washed by pre-cold PBS twice and suspended by 2% PFA/PBS buffer. Neutrophils were classified with flow cytometry by their forward/side-scatter properties and mean fluorescence intensity of anti-CD11b staining on cells was read by FACS (Beckman).
The percent of CD11b signal was calculated by the formula %=(MFI[C5a conc.]-MFI[C5a=0])/(MFI[max]-MFI[C5a=0])×100%. Each data point was the average of 2 individual monkeys. The plasma concentration of each compound is the average concentration prior to C5a injection of 2 individual monkeys.

[6] = test system: C5a induced CD11b upregulation on neutrophil; test: Neutrophil CD11b FACS assay, human C5aR knock-in mice whole blood after oral pre-dosing; type: in vivo; conditions: oral pre-dosing 0.3 mg/kg and 3 mg/kg, 2 hours after dosing
Experimental: as §1
(§2) Whole blood was collected at indicated timepoints (2 hours or 12 hours after dosing compound) and further stimulated with human C5a in vitro. CD11b FACS antibody was added and incubate for 60 min at 4 C before red blood cells were lysed. The percent of CD11b signal was calculated by the formula %=(MFI[C5a conc.]-MFI[C5a=0])/(MFI[max]-MFI[C5a=0])×100%. Each data point was the average SD of 3 individual mice.
as §2, with “2 hrs” for “indicated timepoints (2 hours or 12 hours”, “compound” for “compound)”, “average” for “average SD”, “2” for “3”
as §2, with “2 hrs” for “indicated timepoints (2 hours or 12 hours”, “compound” for “compound)”, “average±SD” for “average SD”, “2” for “3”

Chain of human C5a receptor (C5aR) (P21730 whole entry): as above

Row | SMILES | IC50 [1] [nM] | IC50 (C5aR [2]) [nM] | IC50 (C5aR [3]) [nM] | EC50 at 10 mg/kg ([5]; Macaca fascicularis, Neutrophil, read-out: EC50 (C5a induced CD11b upregulation on granulocytes ex-vivo)) [nM] | rescue of neutropenia induced by human C5a [4] | C5a induced CD11b upregulation on granulocytes ex-vivo [5] | CD11b upregulation on neutrophil [6]
1 | Cc1ccc(NC(=O)[C@H]2C[C@H]3CCC[C@H]3N(C(=O)c3c(C)cccc3F)[C@H]2c2ccc(NC3CCCC3)cc2)cc1C(F)(F)F [Compound 47, (2R,3S,4aR,7aR)-2-(4-(cyclopentylamino)phenyl)-1-(2-fluoro-6-methylbenzoyl)-N-(4-methyl-3-(trifluoromethyl)phenyl)octahydro-1H-cyclopenta[b]pyridine-3-carboxamide] | 50 to 500 | < 50 | < 50 | 276 | effectively rescued the neutropenia | blocked | blocked
2 | Cc1ccc(NC(=O)C2C[C@H]3CCC[C@H]3N(C(=O)c3cncnc3)C2c2ccc(NC3CCCC3)cc2)cc1C(F)(F)F (relative stereo) [Compound 115, cis-2-(4-(cyclopentylamino)phenyl)-N-(4-methyl-3-(trifluoromethyl)phenyl)-1-(pyrimidine-5-carbonyl)octahydro-1H-cyclopenta[b]pyridine-3-carboxamide] | 50 to 500 | 50 to 500 | > 10000 |  |  |  | 
3 | Cc1cccc(F)c1C(=O)N1C(c2ccc(NC3CCCC3)cc2)C(C(=O)Nc2cnc3cnn(C)c3c2)C[C@@H]2COC[C@@H]21 (relative stereo) [Compound 189, cis-2-(4-(cyclopentylamino)phenyl)-1-(2-fluoro-6-methylbenzoyl)-N-(1-methyl-1H-pyrazolo[4,3-b]pyridin-6-yl)octahydrofuro[3,4-b]pyridine-3-carboxamide] | 50 to 500 | 50 to 500 | 2000 to 10000 |  |  |  | 
4 | Cc1cccc(F)c1C(=O)N1C(c2ccc(NC3CCCC3)cc2)C(C(=O)Nc2ccc3c(cnn3C)c2)C[C@@H]2COC[C@@H]21 (relative stereo) [Compound 121, cis-2-(4-(cyclopentylamino)phenyl)-1-(2-fluoro-6-methylbenzoyl)-N-(1-methyl-1H-indazol-5-yl)octahydrofuro[3,4-b]pyridine-3-carboxamide] | 50 to 500 | 50 to 500 | 50 to 500 |  |  |  | 
5 | Cc1ccc(NC(=O)[C@H]2CC[C@@H]3CCc4cccc(F)c4C(=O)N3C2c2ccc(NC3CCCC3)cc2)cc1C(F)(F)F (relative stereo) [Compound 41, cis-4-(4-(cyclopentylamino)phenyl)-7-fluoro-N-(4-methyl-3-(trifluoromethyl)phenyl)-6-oxo-1,2,3,4,6,11,12,12a-octahydrobenzo[e]pyrido[1,2-a]azepine-3-carboxamide] | 500 to 2000 | 50 to 500 | 2000 to 10000 |  |  |  | 
6 | Cc1cccc(F)c1C(=O)N1C(c2ccc(NC3CCOCC3)cc2)C(C(=O)Nc2ccc3c(cnn3C)c2)C[C@@H]2CCC[C@@H]21 (relative stereo) [Compound 158, cis-1-(2-fluoro-6-methylbenzoyl)-N-(1-methyl-1H-indazol-5-yl)-2-(4-((tetrahydro-2H-pyran-4-yl)amino)phenyl)octahydro-1H-cyclopenta[b]pyridine-3-carboxamide] | < 50 | < 50 | 50 to 500 |  |  |  | 
7 | Cc1cccc(F)c1C(=O)N1C2CCC[C@@H]2C[C@H](C(=O)Nc2ccc3cccnc3c2)[C@@H]1c1ccc(NC2CCCC2)cc1 (mixture of isomers) [Compound 73, cis-2-(4-(cyclopentylamino)phenyl)-1-(2-fluoro-6-methylbenzoyl)-N-(quinolin-7-yl)octahydro-1H-cyclopenta[b]pyridine-3-carboxamide] | 50 to 500 | 50 to 500 | 50 to 500 |  |  |  | 
8 | Cc1ccc(NC(=O)[C@H]2CCC3CCc4ccccc4C(=O)N3[C@H]2c2ccc(NC3CCCC3)cc2)cc1C(F)(F)F (stereo partly drawn) [Compound 44, (3S,4R)-4-(4-(cyclopentylamino)phenyl)-N-(4-methyl-3-(trifluoromethyl)phenyl)-6-oxo-1,2,3,4,6,11,12,12a-octahydrobenzo[e]pyrido[1,2-a]azepine-3-carboxamide] | 50 to 500 | < 50 | 500 to 2000 |  |  |  | 

The next lines start with results.

Row | IC50 [1] [nM] | IC50 (C5aR [2]) [nM] | IC50 (C5aR [3]) [nM] | EC50 at 10 mg/kg ([5]; Macaca fascicularis, Neutrophil, read-out: EC50 (C5a induced CD11b upregulation on granulocytes ex-vivo)) [nM] | SMILES | rescue of neutropenia induced by human C5a [4] | C5a induced CD11b upregulation on granulocytes ex-vivo [5] | CD11b upregulation on neutrophil [6]
9 | < 50 | 50 to 500 | 2000 to 10000 |  | Cc1cccc(F)c1C(=O)N1[C@@H]2COC[C@@H]2C[C@H](C(=O)Nc2ccc3c(ccn3C)c2)[C@@H]1c1ccc(NC2CCCC2)cc1 [Compound 139, (2R,3S,4aR,7aS)-2-(4-(cyclopentylamino)phenyl)-1-(2-fluoro-6-methylbenzoyl)-N-(1-methyl-1H-indol-5-yl)octahydrofuro[3,4-b]pyridine-3-carboxamide] |  |  | 
10 | < 50 | < 50 | 500 to 2000 |  | Cc1cccc(F)c1C(=O)N1[C@@H]2CCC[C@@H]2C[C@H](C(=O)Nc2ccc3c(cnn3C)c2)[C@@H]1c1ccc(NC2CCOCC2)cc1 [Compound 89, (2R,3S,4aR,7aR)-1-(2-fluoro-6-methylbenzoyl)-N-(1-methyl-1H-indazol-5-yl)-2-(4-((tetrahydro-2H-pyran-4-yl)amino)phenyl)octahydro-1H-cyclopenta[b]pyridine-3-carboxamide] |  |  | blocked
11 | < 50 | < 50 | 2000 to 10000 |  | Cc1cccc(F)c1C(=O)N1[C@@H]2COC[C@@H]2C[C@H](C(=O)Nc2ccc3c(cnn3C)c2)[C@@H]1c1ccc(NC2CCCC2)cc1 [Compound 126, (2R,3S,4aR,7aS)-2-(4-(cyclopentylamino)phenyl)-1-(2-fluoro-6-methylbenzoyl)-N-(1-methyl-1H-indazol-5-yl)octahydrofuro[3,4-b]pyridine-3-carboxamide] |  |  | 
12 | < 50 | 50 to 500 | 50 to 500 |  | Cc1cccc(F)c1C(=O)N1[C@@H]2CCC[C@@H]2C[C@H](C(=O)Nc2ccc3ncoc3c2)[C@@H]1c1ccc(NC2CCCC2)cc1 (racemic) [Compound 67, cis-N-(benzo[d]oxazol-6-yl)-2-(4-(cyclopentylamino)phenyl)-1-(2-fluoro-6-methylbenzoyl)octahydro-1H-cyclopenta[b]pyridine-3-carboxamide] |  |  | 
13 | < 50 | < 50 | 50 to 500 |  | Cc1ccc(NC(=O)[C@H]2C[C@H]3COC[C@H]3N(C(=O)c3c(C)cccc3F)[C@H]2c2ccc(NC3CCCC3)cc2)cc1C(F)(F)F [Compound 119, (2R,3S,4aR,7aS)-2-(4-(cyclopentylamino)phenyl)-1-(2-fluoro-6-methylbenzoyl)-N-(4-methyl-3-(trifluoromethyl)phenyl)octahydrofuro[3,4-b]pyridine-3-carboxamide] |  |  | 
14 | 50 to 500 | 50 to 500 | 2000 to 10000 |  | Cc1cccc(F)c1C(=O)N1[C@@H]2CCC[C@@H]2C[C@H](C(=O)Nc2cnn(C)c2)[C@@H]1c1ccc(NC2CCCC2)cc1 [Compound 54, (2R,3S,4aR,7aR)-2-(4-(cyclopentylamino)phenyl)-1-(2-fluoro-6-methylbenzoyl)-N-(1-methyl-1H-pyrazol-4-yl)octahydro-1H-cyclopenta[b]pyridine-3-carboxamide] |  |  | 
